Our source for the microsomal CLint and Ki values is patent publication US10160744B2, “Quinoline compounds suitable for treating disorders that respond to the modulation of the serotonin 5-HT6 receptor” (Abbvie Deutschland GmbH & Co. KG, priority 2016, dated 2018).

Data set [1] can be described thus: Metabolic stability in human liver microsomes (microsomal clearance). It counts as in vitro ADME. The conditions noted are these: pH 7.4; human liver microsomes 0.25 mg protein/mL, 0.5 μM compound, NADPH, 37° C.; read-out: mClint. As for the experimental part: Samples of the tested compounds (0.5 μM) were preincubated together with human liver microsomes (0.25 mg of microsomal protein/mL) in 0.05 M potassium phosphate buffer of pH 7.4 in microtiter plates at 37° C. for 5 minutes. The reaction was started by adding NADPH (1.0 mM). After 0, 5, 10, 15, 20 and 30 minutes, an aliquot was removed, the reaction was cooled and stopped by adding twice the amount of quench solution consisting of acetonitrile/methanol 1:1, and containing 0.2 μM carbutamide as internal standard. The samples were frozen until analyzed. The remaining concentration of undegraded test substance was determined by liquid chromatography-tandem mass spectrometry (LC-MS/MS). The half-life (t1/2) was determined from the gradient of the ratio of the signal of (test substance/internal standard)/unit time plot, allowing the calculation of the half-life of the test substance, assuming first order kinetics, from the decrease in the concentration of the compound with time. The microsomal clearance (mClint) was calculated as follows: mClint=((ln(2)/t 1/2)/Microsomal Protein Concentration (mg/ml))*1000, leading to the unit of μL/min/mg.

A further data set has as its target T1, h-5-HT6 receptor (Homo sapiens, UniProt P50406).
T1 construct: expressed in transfected cells
Nature of the data set: 5-HT6 receptor binding assay (displacement of [3H]-LSD). To be noted: cloned human 5-HT6 receptor, HEK293 membranes, 1 nM [3H]-LSD. As for the experimental part: Displacement of radioligands binding to the following cloned human receptors
1. Preparation of Membranes by Ultrasonic Treatment and Differential Centrifugation
Cells from stable clonal cell lines expressing the corresponding receptor (5-HT6, α1-adrenergic, dopamine D2 or histamine H1 receptors) were washed with PBS (w/o Ca^++, Mg^++) and harvested in PBS with 0.02% EDTA. The cells were collected by centrifugation at 500 g for 10 min. at 4° C., washed with PBS and centrifuged (500 g, 10 min. 4° C.). The pellets were stored at −80° C. until use. For membrane preparation, the thawed cell pellet was resuspended in ice-cold sucrose buffer (0.25 M sucrose, 10 mM Hepes (pH 7.4), 1 mM Phenylmethylsulfonyl fluoride (PMSF) in DMSO, 5 μg/ml Pepstatin-A, 3 mM EDTA, 0.025% Bacitracin) and homogenized with a Branson Sonifier W-250 (Settings: Timer 4; Output Control 3; Duty Cycle constant; 2 to 3 cycles). Cell disruption was checked with the aid of a microscope. Remaining unbroken cells were pelleted at 1.000 g for 10 min. at 4° C. The sucrose buffer supernatant was then centrifuged at 60.000 g for 1 h at 4° C. (Beckman Ultrazentrifuge XL 80). The pellet was resuspended in 30 ml ice-cold Tris buffer (20 mM TRIS (pH 7.4), 5 μg/ml Pepstatin A, 0.1 mM PMSF, 3 mM EDTA) by pipetting through a 10 ml serological pipet and centrifuged for 1 h at 4° C. at 60.000 g. A final resuspension was performed in a small volume of ice-cold Tris buffer (see above) by pressing through a serological pipet followed by ultrasonic treatment with a Branson Sonifier W-250 (Settings: Timer 1; Output Control 3; Duty Cycle constant; 1 cycle). Protein concentration was determined (BCA-Kit; Pierce) and aliquots stored at −80° C. or in liquid nitrogen for long-term storage.
2. Receptor Binding Experiments
All receptor binding experiments were carried out in the corresponding assay buffer in a total volume of 200 μl in the presence of various concentrations of test compound (10^−5 M to 10^−9 M, tenfold serial dilution, duplicate determinations). The assays were terminated by filtration on polyethylenimine (PEI 0.1% or 0.3%) presoaked Packard Unifilter Plates (GF/C or GF/B) with a Tomtec MachIII U 96 well-plate harvester. After the plates had been dried for 2 h at 55° C. in a drying chamber scintillation cocktail (BetaPlate Scint; PerkinElmer) was added. Radioactivity was measured in a Microbeta Trilux two hours after the addition of the scintillation mixture. Data derived from liquid scintillation counting were analysed by iterative non-linear regression analysis with the use of the Statistical Analysis System (SAS): a program similar to “LIGAND” as described by Munson and Rodbard (Analytical Biochemistry 107, 220-239 (1980).
a) 5-HT6 Receptor Binding Assay
HEK293 cells stably expressing the h-5-HT6 receptor (NCBI Reference Sequence XM 001435) were cultured in RPMI1640 medium supplemented with 25 mM HEPES, 10% fetal calf serum and 1-2 mM glutamine. The membrane preparation was performed as described in section 1. […] Non-specific binding was defined with 1 μM methiothepin. The binding reaction was carried out for 3.5 h at room temperature. During the incubation, the plates were shaken on a plate shaker at 100 rpm and terminated by filtration on Packard Unifilter GF/C (0.1% PEI) plates, followed by 2 wash cycles with ice-cold 50 mM Tris-HCl, 5 mM CaCl2.
Data derived from liquid scintillation counting were analyzed by iterative non-linear regression analysis with the use of the Statistical Analysis System (SAS): a program similar to “LIGAND” as described by Munson and Rodbard (Anal. Biochem. 1980, 107, 220-239). Fitting was performed according to formulae described by Feldman (Anal. Biochem. 1972, 48, 317-338). IC50, nH and Ki values were expressed as geometrical mean.

Structures can show the parent of a compound that is named as a salt. Bounds are passed on as bounds.

T1 sequence (P50406 whole entry): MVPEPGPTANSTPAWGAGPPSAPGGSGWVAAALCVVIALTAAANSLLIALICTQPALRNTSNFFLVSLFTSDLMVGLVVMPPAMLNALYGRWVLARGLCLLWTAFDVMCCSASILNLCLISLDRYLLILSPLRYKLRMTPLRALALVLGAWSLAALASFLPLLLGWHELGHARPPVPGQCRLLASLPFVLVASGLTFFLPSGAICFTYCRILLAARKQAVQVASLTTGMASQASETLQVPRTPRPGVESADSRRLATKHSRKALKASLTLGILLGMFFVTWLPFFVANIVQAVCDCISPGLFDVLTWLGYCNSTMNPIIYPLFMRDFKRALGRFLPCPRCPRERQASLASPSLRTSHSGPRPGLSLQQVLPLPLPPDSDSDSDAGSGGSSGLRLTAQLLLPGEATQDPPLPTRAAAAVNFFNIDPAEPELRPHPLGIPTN

Consider `O=S(=O)(c1cccc(C(F)(F)F)c1)c1cnc2c(N3CCC(O)CC3)cccc2c1` [Example 1, 1-[3-(3-Trifluoromethyl-benzenesulfonyl)-quinolin-8-yl]-piperidin-4-ol], for which the microsomal CLint at 0.5 μM in data set [1] lay within 30 to 60 µL/min/mg. The same compound had an inhibition constant (Ki) on h-5-HT6 receptor of less than 10 nM. `O=S(=O)(c1cccc(C(F)(F)F)c1)c1cnc2c(N3CCC(O)C3)cccc2c1` (stereo not shown) [Example 2, 1-[3-(3-Trifluoromethyl-benzenesulfonyl)-quinolin-8-yl]-pyrrolidin-3-ol]: the microsomal CLint at 0.5 μM in data set [1] is 60 to 120 µL/min/mg. The inhibitory constant (Ki) at h-5-HT6 receptor was less than 10 nM. The like results for `O=C(O)C1CCN(c2cccc3cc(S(=O)(=O)c4cccc(C(F)(F)F)c4)cnc23)CC1` [Example 3, 1-[3-(3-Trifluoromethyl-benzenesulfonyl)-quinolin-8-yl]-piperidine-4-carboxylic Acid] were, in that order, less than 30 µL/min/mg and less than 10 nM. The like results for `O=S(=O)(c1cccc(C(F)(F)F)c1)c1cnc2c(N3CCC[C@H](O)C3)cccc2c1` [Example 4, (S)-1-[3-(3-Trifluoromethyl-benzenesulfonyl)-quinolin-8-yl]-piperidin-3-ol Hydrochloride] were, in that order, 60 to 120 µL/min/mg and less than 10 nM. `O=S(=O)(c1cccc(C(F)(F)F)c1)c1cnc2c(N3CCC[C@@H](O)C3)cccc2c1` [Example 5, (R)-1-[3-(3-Trifluoromethyl-benzenesulfonyl)-quinolin-8-yl]-piperidin-3-ol]: the microsomal CLint at 0.5 μM in data set [1] was in the range of 60 to 120 µL/min/mg. At h-5-HT6 receptor, this compound yielded a Ki of less than 10 nM. The like results for `O=C(O)C1CCCN(c2cccc3cc(S(=O)(=O)c4cccc(C(F)(F)F)c4)cnc23)C1` (stereo not shown) [Example 6, 1-[3-(3-Trifluoromethyl-benzenesulfonyl)-quinolin-8-yl]-piperidine-3-carboxylic Acid] were, in that order, less than 30 µL/min/mg and 10 to 100 nM. The compound `O=C(O)[C@H]1CCN(c2cccc3cc(S(=O)(=O)c4cccc(C(F)(F)F)c4)cnc23)C1` [Example 11, (3S)-1-[3-[3-(Trifluoromethyl)phenyl]sulfonyl-8-quinolyl]pyrrolidine-3-carboxylic Acid] had an inhibitory constant (Ki) at h-5-HT6 receptor of 10 to 100 nM.

In the case of `COc1cccc(S(=O)(=O)c2cnc3c(N4CC(O)C4)cccc3c2)c1` [Example 14, 1-[3-(3-Methoxyphenyl)sulfonyl-8-quinolyl]azetidin-3-ol], at h-5-HT6 receptor, the Ki fell in the range of 10 to 100 nM. As for `O=S(=O)(c1cnc2c(F)cccc2c1)c1ccccc1N1CCC(O)CC1` [Example 25, 1-[2-[(8-Fluoro-3-quinolyl)sulfonyl]phenyl]piperidin-4-ol], the inhibition constant Ki on h-5-HT6 receptor lay in the range of 10 to 100 nM. Regarding `O=S(=O)(c1cccc(F)c1)c1cnc2c(N3CC[C@H](O)C3)cccc2c1` [Example 26, (3S)-1-[3-(3-Fluorophenyl)sulfonyl-8-quinolyl]pyrrolidin-3-ol], the Ki on h-5-HT6 receptor was less than 10 nM.

On h-5-HT6 receptor, `COc1ccc(C)cc1S(=O)(=O)c1cnc2c(N3CCC(O)CC3)cccc2c1` [Example 35, 1-[3-(2-Methoxy-5-methyl-phenyl)sulfonyl-8-quinolyl]piperidin-4-ol] displayed a Ki of 10 to 100 nM. The same measure, in the same setting: in the case of `O=S(=O)(c1cnc2c(F)cccc2c1)c1ccccc1N1CC(O)C1` [Example 38, 1-[2-[(8-Fluoro-3-quinolyl)sulfonyl]phenyl]azetidin-3-ol] it was 100 to 500 nM. Still for that read-out and setting: in the case of `COc1ccc(C)cc1S(=O)(=O)c1cnc2c(N3CC(O)C3)cccc2c1` [Example 40, 1-[3-(2-Methoxy-5-methyl-phenyl)sulfonyl-8-quinolyl]azetidin-3-ol] it was 10 to 100 nM; in that of `NC(=O)C1CCCN(c2cccc3cc(S(=O)(=O)c4cccc(C(F)(F)F)c4)cnc23)C1` (stereo not shown) [Example 46, 1-[3-(3-Trifluoromethyl-benzenesulfonyl)-quinolin-8-yl]-piperidine-3-carboxylic Acid Amide], less than 10 nM. For `N#Cc1cccc(S(=O)(=O)c2cnc3c(N4CCC(C(=O)O)CC4)cccc3c2)c1` [Example 47, 1-[3-(3-Cyanophenyl)sulfonyl-8-quinolyl]piperidine-4-carboxylic Acid], the microsomal CLint at 0.5 μM in data set [1] is less than 30 µL/min/mg.

Turning to `O=C(O)c1cccc(S(=O)(=O)c2cnc3c(N4CCC(C(=O)O)CC4)cccc3c2)c1` [Example 49, 1-[3-(3-Carboxyphenyl)sulfonyl-8-quinolyl]piperidine-4-carboxylic Acid], in data set [1], the microsomal CLint at 0.5 μM is less than 30 µL/min/mg. Still for that read-out and setting: in the case of `Cc1cccc(S(=O)(=O)c2cnc3c(N4CCC(C(=O)O)CC4)cccc3c2)c1` [Example 50, 1-[3-(m-Tolylsulfonyl)-8-quinolyl]piperidine-4-carboxylic Acid] it was less than 30 µL/min/mg. Take `O=C(O)C1CCN(c2cccc3cc(S(=O)(=O)c4cccc(OC(F)(F)F)c4)cnc23)CC1` [Example 51, 1-[3-[3-(Trifluoromethoxy)phenyl]sulfonyl-8-quinolyl]piperidine-4-carboxylic Acid]: the microsomal CLint at 0.5 μM in data set [1] was 30 to 60 µL/min/mg. Take `O=C(O)C1CCN(c2cccc3cc(S(=O)(=O)c4cccc(F)c4)cnc23)CC1` [Example 52, 1-[3-(3-Fluorophenyl)sulfonyl-8-quinolyl]piperidine-4-carboxylic Acid]: in data set [1], the microsomal CLint at 0.5 μM fell in the range of 30 to 60 µL/min/mg. On the same count and under the same terms, in the case of `O=C(O)C1CCN(c2cccc3cc(S(=O)(=O)c4cccc(N5CCCC5)c4)cnc23)CC1` [Example 53, 1-[3-(3-Pyrrolidin-1-ylphenyl)sulfonyl-8-quinolyl]piperidine-4-carboxylic Acid] it was 30 to 60 µL/min/mg; in that of `COC1CCN(c2cccc(S(=O)(=O)c3cnc4c(N5CCC(C(=O)O)CC5)cccc4c3)c2)C1` (stereo not shown) [Example 54, 1-[3-[3-(3-Methoxypyrrolidin-1-yl)phenyl]sulfonyl-8-quinolyl]piperidine-4-carboxylic Acid], less than 30 µL/min/mg. Still for that read-out and setting: in the case of `O=C(O)C1CCN(c2cccc3cc(S(=O)(=O)c4cccc(N5CCNCC5)c4)cnc23)CC1` [Example 55, 1-[3-(3-Piperazin-1-ylphenyl)sulfonyl-8-quinolyl]piperidine-4-carboxylic Acid] it was less than 30 µL/min/mg; in that of `CN1CCN(c2cccc(S(=O)(=O)c3cnc4c(N5CCC(C(=O)O)CC5)cccc4c3)c2)CC1` [Example 56, 1-[3-[3-(4-Methylpiperazin-1-yl)phenyl]sulfonyl-8-quinolyl]piperidine-4-carboxylic Acid], less than 30 µL/min/mg. In the case of `O=C(O)CC1CCN(c2cccc3cc(S(=O)(=O)c4cccc(C(F)(F)F)c4)cnc23)CC1` [Example 57, 2-[1-[3-[3-(Trifluoromethyl)phenyl]sulfonyl-8-quinolyl]-4-piperidyl]acetic Acid], in data set [1], the microsomal CLint at 0.5 μM was less than 30 µL/min/mg. Same read-out and setting: in the case of `O=C(O)CC1CCCN(c2cccc3cc(S(=O)(=O)c4cccc(C(F)(F)F)c4)cnc23)C1` (stereo not shown) [Example 58, 2-[1-[3-[3-(Trifluoromethyl)phenyl]sulfonyl-8-quinolyl]-3-piperidyl]acetic Acid] it was 30 to 60 µL/min/mg.

As usually defined, the Ki is a dissociation constant, usually derived from enzyme kinetics or from competition with a known ligand. Low readings indicate higher affinity, high ones lower affinity.
